Assays:
GALAP (Galium) = test: Postemergence herbicidal evaluation; format: in vivo, Galium aparine; details: postemergence
Summary of the method: (§1)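 Each compound, dispersed in an acetone/water mix (50/50) carrying 0.5% TWEEN 20, is nozzle-sprayed at 40 psi on approximately two-week-old seedlings at about 0.0156–0.500 kg/ha. Plants are assessed 4–5 weeks afterward on a 0–9 scale relative to control; duplicate tests are averaged.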

ORYSAT (Rice, Tebonnet) = test: Postemergence herbicidal evaluation; format: in vivo, Oryza sativa, (L.) Tebonnet; details: postemergence
Summary of the method: as §1

SETVI (Foxtail, Green) = test: Postemergence herbicidal evaluation; format: in vivo, Setaria viridis; details: postemergence
Summary of the method: as §1

CYPIR (Rice Flatsedge) = test: Preemergence weed control under flooded paddy conditions; format: in vivo, Cyperus iria; details: rated 3-4 weeks after treatment
Summary of the method: (§2)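 Flooded-pot preemergence screen with silt loam and seeds in the upper 0.5 cm. Dose about 0.0313 to 0.500 kg/ha, delivered into flood water; visual 0-9 score after 3 to 4 weeks.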

[1] = tested on: TRZAWR (Wheat, Winter, cv Riband); test: Preemergence herbicidal evaluation; format: in vivo, Triticum aestivum; details: rated 4-5 weeks after treatment
Summary of the method: (§3)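 Greenhouse preemergence test: seed-soil mix sown on ~1 inch soil; aqueous acetone spray at equivalent of ~0.0156–0.500 kg/ha; greenhouse-held and watered; scored 0–9 visually at 4–5 weeks.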

[2] = tested on: ECHORC (Watergrass (Calif.)); test: Preemergence weed control under flooded paddy conditions; format: in vivo, Echinochloa oryzoides; details: rated 3-4 weeks after treatment
Summary of the method: as §2

ECHCG (Barnyardgrass) = test: Postemergence herbicidal evaluation; format: in vivo, Echinochloa crus-galli; details: postemergence
Summary of the method: as §1

ABUTH (Velvetleaf) = test: Postemergence herbicidal evaluation; format: in vivo, Abutilon theophrasti; details: postemergence
Summary of the method: as §1

ZEAMX (Corn, Field) = test: Preemergence herbicidal evaluation; format: in vivo, Zea mays; details: rated 4-5 weeks after treatment
Summary of the method: as §3

MOOVA (Monochoria) = test: Preemergence weed control under flooded paddy conditions; format: in vivo, Monochoria vaginalis; details: rated 3-4 weeks after treatment
Summary of the method: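 Using flooded silt loam (water 1.5 to 3 cm deep), seeds sown in the top 0.5 cm were exposed preemergence to compound pipetted into the flood at about 0.0313 to 0.500 kg/ha. Effects were scored 0-9 by eye three to four weeks later.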

[3] = tested on: IPOHE (Morningglory, Ivyleaf); test: Preemergence herbicidal evaluation; format: in vivo, Ipomoea hederacea; details: rated 4-5 weeks after treatment
Summary of the method: as §3

[4] = rate 0.0156 kg/ha, rating scale 0-9
[5] = rate 0.0313 kg/ha, rating scale 0-9
[6] = rate 0.0625 kg/ha, rating scale 0-9
[7] = rate 0.1250 kg/ha, rating scale 0-9
[8] = rate 0.2500 kg/ha, rating scale 0-9

Cn1c(C(F)(F)F)cc(=O)n(-c2cc(N=C3SCC(=O)N3Cc3ccc(Cl)c(Cl)c3)c(Cl)cc2F)c1=O [Compound 144, 3-{4-Chloro-5-{[3-(3,4-dichlorobenzyl)-4-oxo-2-thiazolidinylidene]amino}-2-fluorophenyl}-1-methyl-6-(trifluoromethyl)-2,4(1H,3H)-pyrimidinedione]
1.0: herbicidal effect rating, ECHORC ([2]; 0.1250 kg/ha) | Preemergence herbicidal rating IPOHE [3, 8]
0.0: Preemergence herbicidal rating TRZAWR [1, 4] | Preemergence herbicidal rating TRZAWR [1, 5] | Preemergence herbicidal rating TRZAWR [1, 6] | Preemergence herbicidal rating TRZAWR [1, 7] | Preemergence herbicidal rating TRZAWR [1, 8] | herbicidal effect rating, ECHORC ([2]; 0.0313 kg/ha) | herbicidal effect rating, ECHORC ([2]; 0.0625 kg/ha) | Preemergence herbicidal rating ZEAMX (ZEAMX (Corn, Field); [4]) | Preemergence herbicidal rating ZEAMX (ZEAMX (Corn, Field); [5]) | Preemergence herbicidal rating ZEAMX (ZEAMX (Corn, Field); [6]) | Preemergence herbicidal rating ZEAMX (ZEAMX (Corn, Field); [7]) | Preemergence herbicidal rating ZEAMX (ZEAMX (Corn, Field); [8]) | Preemergence herbicidal rating IPOHE [3, 4] | Preemergence herbicidal rating IPOHE [3, 5] | Preemergence herbicidal rating IPOHE [3, 6] | Preemergence herbicidal rating IPOHE [3, 7]
4.0: Herbicidal rating GALAP (GALAP (Galium); rate 0.0625 kg/ha) | Herbicidal rating ECHCG (ECHCG (Barnyardgrass); rate 0.0625 kg/ha)
2.5: Herbicidal rating ORYSAT (ORYSAT (Rice, Tebonnet); rate 0.0156 kg/ha) | Herbicidal rating ORYSAT (ORYSAT (Rice, Tebonnet); rate 0.0313 kg/ha)
3.0: Herbicidal rating GALAP (GALAP (Galium); rate 0.0156 kg/ha) | Herbicidal rating GALAP (GALAP (Galium); rate 0.0313 kg/ha) | Herbicidal rating ORYSAT (ORYSAT (Rice, Tebonnet); rate 0.0625 kg/ha) | Herbicidal rating SETVI (SETVI (Foxtail, Green); rate 0.0156 kg/ha) | Herbicidal rating SETVI (SETVI (Foxtail, Green); rate 0.0313 kg/ha) | herbicidal effect rating, CYPIR (CYPIR (Rice Flatsedge); 0.0313 kg/ha) | herbicidal effect rating, CYPIR (CYPIR (Rice Flatsedge); 0.0625 kg/ha) | herbicidal effect rating, ECHORC ([2]; 0.2500 kg/ha) | Herbicidal rating ECHCG (ECHCG (Barnyardgrass); rate 0.0313 kg/ha)
6.0: Herbicidal rating SETVI (SETVI (Foxtail, Green); rate 0.0625 kg/ha) | herbicidal effect rating, MOOVA (MOOVA (Monochoria); 0.0313 kg/ha)
2.0: Herbicidal rating ECHCG (ECHCG (Barnyardgrass); rate 0.0156 kg/ha)
9.0: herbicidal effect rating, CYPIR (CYPIR (Rice Flatsedge); 0.1250 kg/ha) | herbicidal effect rating, CYPIR (CYPIR (Rice Flatsedge); 0.2500 kg/ha) | Herbicidal rating ABUTH (ABUTH (Velvetleaf); rate 0.0156 kg/ha) | Herbicidal rating ABUTH (ABUTH (Velvetleaf); rate 0.0313 kg/ha) | Herbicidal rating ABUTH (ABUTH (Velvetleaf); rate 0.0625 kg/ha) | herbicidal effect rating, MOOVA (MOOVA (Monochoria); 0.0625 kg/ha) | herbicidal effect rating, MOOVA (MOOVA (Monochoria); 0.1250 kg/ha) | herbicidal effect rating, MOOVA (MOOVA (Monochoria); 0.2500 kg/ha)

CCOC(=O)CN1C(=O)C(OC)SC1=Nc1cc(-n2c(=O)cc(C(F)(F)F)n(C)c2=O)c(F)cc1Cl (centres unmarked) [Compound 160, Ethyl 2-{{2-chloro-5-[3,6-dihydro-3-methyl-2,6-dioxo-4-(trifluoromethyl)-1(2H)-pyrimidinyl]-4-fluorophenyl}imino}-5-methoxy-4-oxo-3-thiazolidineacetate]
7.0: Preemergence herbicidal rating TRZAWR ([1]; 0.5000 kg/ha) | Herbicidal rating ECHCG (ECHCG (Barnyardgrass); rate 0.1250 kg/ha) | herbicidal effect rating, MOOVA (MOOVA (Monochoria); 0.2500 kg/ha)
6.0: Herbicidal rating SETVI (SETVI (Foxtail, Green); rate 0.0313 kg/ha) | herbicidal effect rating, CYPIR (CYPIR (Rice Flatsedge); 0.1250 kg/ha) | herbicidal effect rating, MOOVA (MOOVA (Monochoria); 0.0625 kg/ha) | herbicidal effect rating, MOOVA (MOOVA (Monochoria); 0.1250 kg/ha) | Preemergence herbicidal rating IPOHE ([3]; 0.0313 kg/ha)
3.0: herbicidal effect rating, CYPIR (CYPIR (Rice Flatsedge); 0.0625 kg/ha) | Herbicidal rating ECHCG (ECHCG (Barnyardgrass); rate 0.0156 kg/ha) | Preemergence herbicidal rating IPOHE ([3]; 0.0156 kg/ha)
2.0: Herbicidal rating GALAP (GALAP (Galium); rate 0.0625 kg/ha) | Herbicidal rating ORYSAT (ORYSAT (Rice, Tebonnet); rate 0.0156 kg/ha) | herbicidal effect rating, ECHORC ([2]; 0.1250 kg/ha) | Preemergence herbicidal rating ZEAMX (ZEAMX (Corn, Field); 0.1250 kg/ha)
0.0: Herbicidal rating GALAP (GALAP (Galium); rate 0.0156 kg/ha) | Herbicidal rating GALAP (GALAP (Galium); rate 0.0313 kg/ha) | Herbicidal rating SETVI (SETVI (Foxtail, Green); rate 0.0156 kg/ha) | herbicidal effect rating, CYPIR (CYPIR (Rice Flatsedge); 0.0313 kg/ha) | Preemergence herbicidal rating TRZAWR ([1]; 0.0156 kg/ha) | Preemergence herbicidal rating TRZAWR ([1]; 0.0313 kg/ha) | herbicidal effect rating, ECHORC ([2]; 0.0313 kg/ha) | herbicidal effect rating, ECHORC ([2]; 0.0625 kg/ha) | Preemergence herbicidal rating ZEAMX (ZEAMX (Corn, Field); 0.0156 kg/ha) | Preemergence herbicidal rating ZEAMX (ZEAMX (Corn, Field); 0.0313 kg/ha)
4.5: Herbicidal rating ORYSAT (ORYSAT (Rice, Tebonnet); rate 0.0625 kg/ha) | Herbicidal rating ORYSAT (ORYSAT (Rice, Tebonnet); rate 0.1250 kg/ha)
8.0: Preemergence herbicidal rating ZEAMX (ZEAMX (Corn, Field); 0.5000 kg/ha) | Preemergence herbicidal rating IPOHE ([3]; 0.2500 kg/ha)
4.0: Herbicidal rating GALAP (GALAP (Galium); rate 0.1250 kg/ha) | Preemergence herbicidal rating TRZAWR ([1]; 0.2500 kg/ha) | herbicidal effect rating, ECHORC ([2]; 0.2500 kg/ha) | Herbicidal rating ECHCG (ECHCG (Barnyardgrass); rate 0.0625 kg/ha)
1.0: Preemergence herbicidal rating TRZAWR ([1]; 0.0625 kg/ha) | Preemergence herbicidal rating TRZAWR ([1]; 0.1250 kg/ha) | Preemergence herbicidal rating ZEAMX (ZEAMX (Corn, Field); 0.0625 kg/ha)
9.0: Herbicidal rating SETVI (SETVI (Foxtail, Green); rate 0.0625 kg/ha) | Herbicidal rating SETVI (SETVI (Foxtail, Green); rate 0.1250 kg/ha) | herbicidal effect rating, CYPIR (CYPIR (Rice Flatsedge); 0.2500 kg/ha) | Herbicidal rating ABUTH (ABUTH (Velvetleaf); rate 0.0156 kg/ha) | Herbicidal rating ABUTH (ABUTH (Velvetleaf); rate 0.0313 kg/ha) | Herbicidal rating ABUTH (ABUTH (Velvetleaf); rate 0.0625 kg/ha) | Herbicidal rating ABUTH (ABUTH (Velvetleaf); rate 0.1250 kg/ha) | Preemergence herbicidal rating IPOHE ([3]; 0.0625 kg/ha) | Preemergence herbicidal rating IPOHE ([3]; 0.1250 kg/ha) | Preemergence herbicidal rating IPOHE ([3]; 0.5000 kg/ha)
3.5: Herbicidal rating ORYSAT (ORYSAT (Rice, Tebonnet); rate 0.0313 kg/ha)
5.0: Herbicidal rating ECHCG (ECHCG (Barnyardgrass); rate 0.0313 kg/ha) | Preemergence herbicidal rating ZEAMX (ZEAMX (Corn, Field); 0.2500 kg/ha) | herbicidal effect rating, MOOVA (MOOVA (Monochoria); 0.0313 kg/ha)

Cn1c(C(F)(F)F)cc(=O)n(-c2cc(N=C3SCC(=O)N3Cc3ccncc3)c(Cl)cc2F)c1=O [Compound 133, 3-{4-Chloro-2-fluoro-5-{[4-oxo-3-(4-pyridylmethyl)-2-thiazolidinylidene]amino}phenyl}-1-methyl-6-(trifluoromethyl)-2,4(1H,3H)-pyrimidinedione]
6.0: herbicidal effect rating, ECHORC ([2]; 0.0313 kg/ha) | herbicidal effect rating, ECHORC ([2]; 0.0625 kg/ha) | herbicidal effect rating, MOOVA (MOOVA (Monochoria); 0.2500 kg/ha)
9.0: herbicidal effect rating, ECHORC ([2]; 0.1250 kg/ha) | herbicidal effect rating, ECHORC ([2]; 0.2500 kg/ha) | Herbicidal rating ABUTH (ABUTH (Velvetleaf); rate 0.0156 kg/ha) | Herbicidal rating ABUTH (ABUTH (Velvetleaf); rate 0.0313 kg/ha) | Herbicidal rating ABUTH (ABUTH (Velvetleaf); rate 0.0625 kg/ha)
1.0: Herbicidal rating SETVI (SETVI (Foxtail, Green); rate 0.0156 kg/ha) | Herbicidal rating SETVI (SETVI (Foxtail, Green); rate 0.0313 kg/ha) | Herbicidal rating ECHCG (ECHCG (Barnyardgrass); rate 0.0156 kg/ha) | Herbicidal rating ECHCG (ECHCG (Barnyardgrass); rate 0.0313 kg/ha) | Herbicidal rating ECHCG (ECHCG (Barnyardgrass); rate 0.0625 kg/ha) | Preemergence herbicidal rating IPOHE [3, 8]
3.0: Herbicidal rating GALAP (GALAP (Galium); rate 0.0625 kg/ha) | Herbicidal rating ORYSAT (ORYSAT (Rice, Tebonnet); rate 0.0625 kg/ha) | herbicidal effect rating, CYPIR (CYPIR (Rice Flatsedge); 0.2500 kg/ha) | herbicidal effect rating, MOOVA (MOOVA (Monochoria); 0.0313 kg/ha)
4.0: herbicidal effect rating, MOOVA (MOOVA (Monochoria); 0.0625 kg/ha) | herbicidal effect rating, MOOVA (MOOVA (Monochoria); 0.1250 kg/ha)
0.0: Herbicidal rating GALAP (GALAP (Galium); rate 0.0156 kg/ha) | herbicidal effect rating, CYPIR (CYPIR (Rice Flatsedge); 0.0313 kg/ha) | herbicidal effect rating, CYPIR (CYPIR (Rice Flatsedge); 0.0625 kg/ha) | Preemergence herbicidal rating TRZAWR [1, 5] | Preemergence herbicidal rating TRZAWR [1, 6] | Preemergence herbicidal rating TRZAWR [1, 7] | Preemergence herbicidal rating TRZAWR [1, 8] | Preemergence herbicidal rating ZEAMX (ZEAMX (Corn, Field); [5]) | Preemergence herbicidal rating ZEAMX (ZEAMX (Corn, Field); [6]) | Preemergence herbicidal rating ZEAMX (ZEAMX (Corn, Field); [7]) | Preemergence herbicidal rating ZEAMX (ZEAMX (Corn, Field); [8]) | Preemergence herbicidal rating IPOHE [3, 5] | Preemergence herbicidal rating IPOHE [3, 6] | Preemergence herbicidal rating IPOHE [3, 7]
2.5: Herbicidal rating ORYSAT (ORYSAT (Rice, Tebonnet); rate 0.0156 kg/ha) | Herbicidal rating ORYSAT (ORYSAT (Rice, Tebonnet); rate 0.0313 kg/ha)
2.0: Herbicidal rating GALAP (GALAP (Galium); rate 0.0313 kg/ha) | Herbicidal rating SETVI (SETVI (Foxtail, Green); rate 0.0625 kg/ha) | herbicidal effect rating, CYPIR (CYPIR (Rice Flatsedge); 0.1250 kg/ha)

— patent US20020137929A1, “1 - (3-heterocyclylphenyl) isothiourea, -isourea, -guanidine and -amidine herbicidal agents” (Intellectual Property Department, BASF Aktiengesellschaft, priority 1998, published 2002)
